{"source": "patent US6576811B1", "about": "“Transgenic rat with human normal type c-Ha-ras gene” (National Cancer Center Research Institute, priority 1998, dated 2003)", "key": {"[1]": {"test_system": "human c-Ha-ras proto-oncogene (transgene)", "assay": "Mutation analysis (RFLP, PCR-SSCP) of the transgene in carcinogen-induced tumors", "description": "Single-stranded DNA confirmation polymorphism (SSCP) analysis is able to be performed according to the followings; T. Sekiya. Protein, Nucleic Acid, Enzyme, vol.\nPossible mutations in exons 1 to 4 of the human Ha-ras proto-oncogene and exons 1 and 2 of the endogenous gene were examined by PCR-SSCP analysis.\nRFLP analysis is able to perform according to the followings; Nagase, et al., Protein, Nucleic Acid, Enzyme, vol."}, "[2]": {"test_system": "wild type rats", "assay": "BBN-induced urinary bladder tumors in wild type rats", "format": "in vivo, rat", "settings": "Wild female", "method": "(§1) In the same manner as in Example 2, 0.05% N-butyl-N-(4-hydroxybutyl)nitrosoamine (BBN) was administered mixed with drinking water to Hras128 rats and the wild type rats for 10 weeks, to induce bladder tumors. The incidences of bladder tumors (papillomas and carcinomas combined) are shown in Table 11, the mutation of the human c-Ha-ras proto-oncogene codons 12 and 61 and endogeneous rat H-ras shown in Table 12."}, "[3]": {"test_system": "Hras128 rats", "assay": "BBN-induced urinary bladder tumors in Hras128 rats", "format": "in vivo, rat", "method": "as §1"}, "[4]": {"test_system": "endogenous Ha-ras gene (rat)", "assay": "Mutation analysis (PCR-SSCP) of the endogenous Ha-ras gene in carcinogen-induced tumors", "description": "Single-stranded DNA confirmation polymorphism (SSCP) analysis is able to be performed according to the followings; T. Sekiya. Protein, Nucleic Acid, Enzyme, vol. 41, No. 5, 539, 1996.\nPossible mutations in exons 1 to 4 of the human Ha-ras proto-oncogene and exons 1 and 2 of the endogenous gene were examined by PCR-SSCP analysis. Using human or rat specific primers, only two bands appeared on the gals. With common primers (cHras21F and cHras21R) for Ha-ras exon 2 of both man and rats, four bands were detected. Human or rat specific bands were identified by signals from normal DNA of the transgenic and non-transgenic rats. DNA from T24 having a mutation in human Ha-ras of codon 12, GGC to GTC and that from pSK2 having a mutation in the codon 61, CAG to CTG, gave clearly mobility shifted bands in the assays (FIG. 4). However, a GGC to GAC mutation of the transgene enriched by PCR after RFLP analysis as described below, which was frequently observed in tumors induced by MNU in human Ha-ras proto-oncogene transgenic mice, could not be detected by SSCP -PCR analysis. In 44 tumors from Hras128 transgenic rats treated with MNU, mutations were not detected in exons 1 to 4 of the introduced human and endogenous c-Ha-ras genes under any of four SSCP conditions (at 4 or 20° C., with or without 5% glycerol) (Table 1). In contrast, a relatively high frequency (6 of 21 tumors of non-transgenic rats (28.6%) of GGA to GAA mutations in codon 12 of the endogenous Ha-ras gene was detected in mammary carcinomas of non-transgenic using PCR-SSCP analysis followed by direct sequencing (Table 1)."}, "[5]": {"test_system": "wild type rats (non Tg rats)", "assay": "DMBA-induced mammary carcinomas in wild type rats", "format": "in vivo, rat", "source_text": "(§4) Well established mammary carcinogens, such as 7,14-dimethylbenz[a]anthracene (DMBA) and 2-amino-1-methyl-6-phenylimidazo[4,5-]pyridlne (PhIP) were given to the Hras128 rats in the same manner as in previous reports.\n(§5) The number of tumor indicates number of lesions per rat and the sizes of the tumors indicates their diameter (mm)."}, "[6]": {"test_system": "Hras128 rats", "assay": "DMBA-induced mammary carcinomas in Hras128 rats", "source_text": "as §4, §5"}, "[7]": {"test_system": "Hras128 rats", "assay": "ENU-induced transplacental carcinogenesis in Hras128 (Tg 128) rats", "format": "in vivo, rat", "settings": "for No. of tumor bearing rat/total No. of rat / Tumor incidence, CNS / Tumor incidence, kidney / Tumor incidence, mammary gland / Tumor incidence, papilloma / Tumor incidence, spleen: transplacental ENU", "method": "(§2) The effects of transplacental administration of carcinogenic substances were examined in offsprings of females and males of Hras128 rats and wild rats.\n(§3) Transplacental administration of ethylnitrosourea (ENU) was performed and incidence of tumors in many organs of the bearing rats are shown in Table 14."}, "[8]": {"test_system": "wild rats", "assay": "ENU-induced transplacental carcinogenesis in wild rats", "format": "in vivo, rat", "method": "as §2, §3"}, "[9]": {"settings": "BBN-induced bladder tumors, Hras128, 27 tumors examined"}, "[10]": {"settings": "bladder papillomas and carcinomas combined, 15 rats"}, "[11]": {"settings": "Hras128 female, bladder papillomas and carcinomas combined, 20 rats"}, "[12]": {"settings": "BBN-induced bladder tumors, Wild, 17 tumors examined"}, "[13]": {"settings": "Hras128, mammary carcinomas, 14 rats"}, "[14]": {"settings": "DMBA-induced mammary carcinomas, Hras128, 20 tumors examined"}, "[15]": {"settings": "DMBA-induced mammary carcinomas, Hras128, 20 tumors examined, RFLP"}, "[16]": {"settings": "DMBA-induced mammary carcinomas, Wild, 7 tumors examined"}}, "note": "Values joined by “and” are separate entries in the source; they are usually repeats but may differ in a detail not shown here. Equal values may be shown once. Marks after values point to notes of the source that are not given here."}
{"smiles": "CCCCN(CCCCO)N=O", "note": "[BBN, N-butyl-N-(4-hydroxybutyl)nitrosoamine]", "values": [{"measurement": "Transgene codon 12 mutations, %", "setting": "[1]; [9]", "result": 7.4, "unit": "%"}, {"measurement": "Transgene codon 61 mutations, number of tumors", "setting": "[1]; [9]", "result": 0}, {"measurement": "Transgene mutations total, %", "setting": "[1]; [9]", "result": 7.4, "unit": "%"}, {"measurement": "Transgene mutations total, number of tumors", "setting": "[1]; [9]", "result": 2}, {"measurement": "Transgene codon 12 mutations, number of tumors", "setting": "[1]; BBN-induced bladder tumors, Hras128, 27 tumors examined, GGC to GAC", "result": "2/27 and 2"}, {"measurement": "Incidence of carcinomas (fraction)", "setting": "[2]; bladder", "result": "4/13"}, {"measurement": "No. of tumor-bearing rats", "setting": "[2]; bladder papillomas and carcinomas combined, 0.05% BBN in drinking water 10 weeks, 15 rats", "result": 15}, {"measurement": "No. of tumor-bearing rats (%)", "setting": "[2]; [10]", "result": 100, "unit": "%"}, {"measurement": "No. of tumors/rat", "setting": "[2]; [10]", "result": "7.1 ± 5.2"}, {"measurement": "Incidence of carcinomas (figure in parentheses)", "setting": "[2]; bladder, percent sign not given", "result": 30.8}, {"measurement": "Incidence of carcinomas (fraction)", "setting": "[3]; Hras128 female, bladder", "result": "11/14"}, {"measurement": "No. of tumor-bearing rats", "setting": "[3]; Hras128 female, bladder papillomas and carcinomas combined, 0.05% BBN in drinking water 10 weeks, 20 rats", "result": 19}, {"measurement": "No. of tumor-bearing rats (%)", "setting": "[3]; [11]", "result": 95, "unit": "%"}, {"measurement": "No. of tumors/rat", "setting": "[3]; [11]", "result": "13.2 ± 6.8^b"}, {"measurement": "Incidence of carcinomas (figure in parentheses)", "setting": "[3]; Hras128 female, bladder, percent sign not given", "result": 35.3}, {"measurement": "Sensitivity of the Hras128 rat to BBN carcinogenesis in the bladder", "setting": "[3]; rat, in vivo", "result": "slightly elevated sensitivity"}, {"measurement": "Endogenous (rat) exon 1 mutations, number of tumors", "setting": "[4]; [9]", "result": 0}, {"measurement": "Endogenous (rat) exon 2 mutations, number of tumors", "setting": "[4]; [9]", "result": 0}, {"measurement": "Endogenous (rat) exon 1 mutations, %", "setting": "[4]; [12]", "result": 5.9, "unit": "%"}, {"measurement": "Endogenous (rat) exon 2 mutations, number of tumors", "setting": "[4]; [12]", "result": 0}, {"measurement": "Endogenous (rat) exon 1 mutations, number of tumors", "setting": "[4]; BBN-induced bladder tumors, Wild, 17 tumors examined, GGA to GAA", "result": "1/17 and 1"}]}
{"smiles": "Cc1c2ccccc2c(C)c2c1ccc1ccccc12", "note": "[DMBA]", "values": [{"measurement": "Tumor size (diameter)", "setting": "[5]", "result": "13.4 ± 8.20", "unit": "mm"}, {"measurement": "No. of tumor-bearing rats", "setting": "[5]; 12 rats", "result": 4}, {"measurement": "No. of tumor-bearing rats (%)", "setting": "[5]; 12 rats", "result": 33.3, "unit": "%"}, {"measurement": "No. of tumors/rat", "setting": "[5]; 12 rats", "result": "0.83 ± 1.75"}, {"measurement": "Tumor size (diameter)", "setting": "[6]; Hras128, mammary carcinomas", "result": "12.6 ± 9.22", "unit": "mm"}, {"measurement": "No. of tumor-bearing rats", "setting": "[6]; [13]", "result": 13}, {"measurement": "No. of tumor-bearing rats (%)", "setting": "[6]; [13]", "result": 92.9, "unit": "%"}, {"measurement": "No. of tumors/rat", "setting": "[6]; [13]", "result": "9.39 ± 9.79^b"}, {"measurement": "Sensitivity of the Hras128 rat to DMBA", "setting": "[6]; mammary carcinogenesis", "result": "very sensitive"}, {"measurement": "Transgene codon 12 mutations, %", "setting": "[1]; [14]", "result": 30, "unit": "%"}, {"measurement": "Transgene codon 61 mutations, %", "setting": "[1]; [14]", "result": 35, "unit": "%"}, {"measurement": "Transgene mutations total, %", "setting": "[1]; [14]", "result": 60, "unit": "%"}, {"measurement": "Transgene mutations total, number of tumors", "setting": "[1]; [14]", "result": 12}, {"measurement": "Transgene codon 12 mutations, number of tumors", "setting": "[1]; [15]", "result": "6/20 and 6"}, {"measurement": "Transgene codon 61 mutations, number of tumors", "setting": "[1]; [15]", "result": "7/20 and 7"}, {"measurement": "Endogenous (rat) exon 1 mutations, number of tumors", "setting": "[4]; [14]", "result": 0}, {"measurement": "Endogenous (rat) exon 2 mutations, number of tumors", "setting": "[4]; [14]", "result": 0}, {"measurement": "Endogenous (rat) exon 1 mutations, number of tumors", "setting": "[4]; [16]", "result": 0}, {"measurement": "Endogenous (rat) exon 2 mutations, number of tumors", "setting": "[4]; [16]", "result": 0}]}
{"smiles": "CCN(N=O)C(N)=O", "note": "[ENU, ethylnitrosourea]", "values": [{"measurement": "No. of tumor bearing rat/total No. of rat", "setting": "[7]; Tg 128 Female offspring", "result": "6/9"}, {"measurement": "Tumor incidence, CNS", "setting": "[7]; Tg 128 Female offspring", "result": "3/9"}, {"measurement": "Tumor incidence, kidney", "setting": "[7]; Tg 128 Female offspring", "result": "2/9"}, {"measurement": "Tumor incidence, mammary gland", "setting": "[7]; Tg 128 Female offspring", "result": "5/9"}, {"measurement": "Tumor incidence, papilloma", "setting": "[7]; Tg 128 Female offspring", "result": 0}, {"measurement": "Tumor incidence, spleen", "setting": "[7]; Tg 128 Female offspring", "result": "2/9"}, {"measurement": "No. of tumor bearing rat/total No. of rat", "setting": "[7]; Tg 128 Male offspring", "result": "8/15"}, {"measurement": "Tumor incidence, CNS", "setting": "[7]; Tg 128 Male offspring", "result": "6/15"}, {"measurement": "Tumor incidence, kidney", "setting": "[7]; Tg 128 Male offspring", "result": "6/15"}, {"measurement": "Tumor incidence, mammary gland", "setting": "[7]; Tg 128 Male offspring", "result": "4/15"}, {"measurement": "Tumor incidence, papilloma", "setting": "[7]; Tg 128 Male offspring", "result": "3/15"}, {"measurement": "Tumor incidence, spleen", "setting": "[7]; Tg 128 Male offspring", "result": "0/15"}, {"measurement": "Occurrence of tumors in the central nervous system, kidney, skin, etc. after trans-placental administration", "setting": "[7]; transgenic rat, within a short period", "result": "significantly increases"}, {"measurement": "No. of tumor bearing rat/total No. of rat", "setting": "[8]; Wild 128 Female offspring", "result": "0/7"}, {"measurement": "Tumor incidence, CNS", "setting": "[8]; Wild 128 Female offspring", "result": 0}, {"measurement": "Tumor incidence, kidney", "setting": "[8]; Wild 128 Female offspring", "result": 0}, {"measurement": "Tumor incidence, mammary gland", "setting": "[8]; Wild 128 Female offspring", "result": 0}, {"measurement": "Tumor incidence, papilloma", "setting": "[8]; Wild 128 Female offspring", "result": 0}, {"measurement": "Tumor incidence, spleen", "setting": "[8]; Wild 128 Female offspring", "result": 0}, {"measurement": "No. of tumor bearing rat/total No. of rat", "setting": "[8]; Wild 128 Male offspring", "result": "2/6"}, {"measurement": "Tumor incidence, CNS", "setting": "[8]; Wild 128 Male offspring", "result": "2/6"}, {"measurement": "Tumor incidence, kidney", "setting": "[8]; Wild 128 Male offspring", "result": 0}, {"measurement": "Tumor incidence, mammary gland", "setting": "[8]; Wild 128 Male offspring", "result": 0}, {"measurement": "Tumor incidence, papilloma", "setting": "[8]; Wild 128 Male offspring", "result": 0}, {"measurement": "Tumor incidence, spleen", "setting": "[8]; Wild 128 Male offspring", "result": 0}]}
